Results from patent US8916711B2, “Imidazothiazole-chalcone derivatives as potential anticancer agents and process for the preparation thereof” (Council of Scientific and Industrial Research, priority 2009, dated 2014).
Where two headings read alike, the source gives them in different places.

What was measured:
Type in all cases: cell-based
[1] = tested on: OVCAR-4; experiment: NCI in vitro cytotoxicity (SRB, 48 h), Ovarian panel; settings: Homo sapiens; OVCAR-4, Ovarian; 48 h exposure
[2] = tested on: sixty human tumour cell lines; experiment: NCI in vitro cytotoxicity, all panels; settings: for CC50: read-out: Log10 LC50 mean graph midpoint (MG_MID) (converted)
[3] = tested on: OVCAR-3; experiment: NCI in vitro cytotoxicity (SRB, 48 h), Ovarian panel; settings: Homo sapiens; OVCAR-3, Ovarian; 48 h exposure
[4] = tested on: HCT-15; experiment: NCI in vitro cytotoxicity (SRB, 48 h), Colon panel; settings: Homo sapiens; HCT-15, Colon; 48 h exposure
[5] = tested on: Ovarian cancer cell lines; experiment: NCI in vitro cytotoxicity, whole panel; settings: Homo sapiens; for CC50: read-out: Log10 LC50 (converted)
[6] = tested on: NCI-H522; experiment: NCI in vitro cytotoxicity (SRB, 48 h), Non-small cell lung panel; settings: Homo sapiens, 48 h exposure
[7] = tested on: Renal cancer cell lines; experiment: NCI in vitro cytotoxicity, whole panel; settings: Homo sapiens; for CC50: read-out: Log10 LC50 (converted)
[8] = tested on: SK-MEL-28; experiment: NCI in vitro cytotoxicity (SRB, 48 h), Melanoma panel; settings: Homo sapiens; SK-MEL-28, Melanoma; 48 h exposure
[9] = tested on: Prostate cancer cell lines; experiment: NCI in vitro cytotoxicity, whole panel; settings: Homo sapiens; for LC50: read-out: Log10 LC50 (converted)
[10] = tested on: Leukemia cell lines; experiment: NCI in vitro cytotoxicity, whole panel; settings: Homo sapiens; for CC50: read-out: Log10 LC50 (converted)
[11] = tested on: OVCAR-8; experiment: NCI in vitro cytotoxicity (SRB, 48 h), Ovarian panel; settings: Homo sapiens; OVCAR-8, Ovarian; 48 h exposure
[12] = tested on: KM12; experiment: NCI in vitro cytotoxicity (SRB, 48 h), Colon panel; settings: Homo sapiens, 48 h exposure
[13] = tested on: HOP-62; experiment: NCI in vitro cytotoxicity (SRB, 48 h), Non-small cell lung panel; settings: Homo sapiens; HOP-62, Non-small cell lung; 48 h exposure
[14] = tested on: UACC-25; experiment: NCI in vitro cytotoxicity (SRB, 48 h), Melanoma panel; settings: Homo sapiens; UACC-25, Melanoma; 48 h exposure
[15] = tested on: MALME-3M; experiment: as above; settings: Homo sapiens, 48 h exposure
[16] = tested on: LOX IMVI; experiment: as above; settings: Homo sapiens, 48 h exposure
[17] = tested on: M14; experiment: as above; settings: Homo sapiens, 48 h exposure
[18] = tested on: UO-31; experiment: NCI in vitro cytotoxicity (SRB, 48 h), Renal panel; settings: Homo sapiens; UO-31, Renal; 48 h exposure
[19] = tested on: CCRF-CEM; experiment: NCI in vitro cytotoxicity (SRB, 48 h), Leukemia panel; settings: Homo sapiens, 48 h exposure
[20] = tested on: HOP-92; experiment: NCI in vitro cytotoxicity (SRB, 48 h), Non-small cell lung panel; settings: Homo sapiens
[21] = tested on: Melanoma cell lines; experiment: NCI in vitro cytotoxicity, whole panel; settings: Homo sapiens; for CC50: read-out: Log10 LC50 (converted)
[22] = tested on: HS 578T; experiment: NCI in vitro cytotoxicity (SRB, 48 h), Breast panel; settings: Homo sapiens, 48 h exposure
[23] = tested on: SK-OV-3; experiment: NCI in vitro cytotoxicity (SRB, 48 h), Ovarian panel; settings: Homo sapiens; SK-OV-3, Ovarian; 48 h exposure
[24] = tested on: EKVX; experiment: NCI in vitro cytotoxicity (SRB, 48 h), Non-small cell lung panel; settings: Homo sapiens, 48 h exposure
[25] = tested on: HL-60(TB); experiment: NCI in vitro cytotoxicity (SRB, 48 h), Leukemia panel; settings: Homo sapiens, 48 h exposure
Method: (§1) The imidazothiazole-chalcone hybrids 7a, 7e, 7f, 8f and 19e have been tested against sixty human tumour cell lines derived from nine cancer types (leukemia, non-small cell lung cancer, colon cancer, CNS cancer, melanoma, ovarian cancer, renal cancer, prostate cancer and breast cancer) as per NCI protocol. For each compound, dose response curves for individual cell lines have been measured at a minimum of five concentrations at 10 fold dilutions. A protocol of 48 h continuous drug exposure has been used, and a sulforhodamine B (SRB) protein assay was used to estimate cell viability or growth. The concentration for 50% cell growth inhibition (GI50), total cell growth inhibition (TGI, 0% growth) and 50% cell death (LC50, […]) compared with the control has been calculated (Table-1).

[26] = tested on: SR; experiment: as above; settings: Homo sapiens
Method: as §1

[27] = tested on: 786-0; experiment: NCI in vitro cytotoxicity (SRB, 48 h), Renal panel; settings: Homo sapiens; 786-0, Renal; 48 h exposure
[28] = tested on: SK-MEL-5; experiment: NCI in vitro cytotoxicity (SRB, 48 h), Melanoma panel; settings: Homo sapiens; SK-MEL-5, Melanoma; 48 h exposure
[29] = tested on: HT29; experiment: NCI in vitro cytotoxicity (SRB, 48 h), Colon panel; settings: Homo sapiens, HT-29, 48 h exposure
[30] = tested on: PC-3; experiment: NCI in vitro cytotoxicity (SRB, 48 h), Prostate panel; settings: Homo sapiens; PC-3, Prostate; 48 h exposure
[31] = tested on: U251; experiment: NCI in vitro cytotoxicity (SRB, 48 h), CNS panel; settings: Homo sapiens, U-251, 48 h exposure
[32] = tested on: DU-145; experiment: NCI in vitro cytotoxicity (SRB, 48 h), Prostate panel; settings: Homo sapiens; DU-145, Prostate; 48 h exposure
[33] = tested on: TK-10; experiment: NCI in vitro cytotoxicity (SRB, 48 h), Renal panel; settings: Homo sapiens; TK-10, Renal; 48 h exposure
[34] = tested on: MDA-MB-468; experiment: NCI in vitro cytotoxicity (SRB, 48 h), Breast panel; settings: Homo sapiens; MDA-MB-468, Breast; 48 h exposure
[35] = Homo sapiens, sixty cell lines, nine panels, read-out: GI50 against sixty cell lines in nine cell panels
[36] = human tumour cell lines, read-out: Log10 GI50 mean graph midpoint (MG_MID) (converted)
[37] = Ovarian, average of six to eight cell lines, read-out: Log10 GI50 (converted)
[38] = Ovarian, average of six to eight cell lines
[39] = exposure period of at least 48 hrs, read-out: GI50, range over ovarian cell lines
[40] = Renal, average of six to eight cell lines, read-out: Log10 GI50 (converted)
[41] = Renal, average of six to eight cell lines
[42] = exposure period of at least 48 hrs, read-out: GI50, range over renal cell lines
[43] = Prostate cell, exposure period of at least 48 hrs, read-out: GI50, range over prostate cell lines
[44] = Prostate, average of the panel's cell lines, read-out: Log10 GI50 (converted)
[45] = Prostate, average of the panel's cell lines
[46] = Leukemia, average of six to eight cell lines, read-out: Log10 GI50 (converted)
[47] = Leukemia, average of six to eight cell lines
[48] = exposure period of at least 48 hrs, read-out: GI50, range over leukemia cell lines
[49] = HOP-92, Non-small cell lung, 48 h exposure
[50] = Melanoma, average of six to eight cell lines, read-out: Log10 GI50 (converted)
[51] = Melanoma, average of six to eight cell lines
[52] = exposure period of at least 48 hrs, read-out: GI50, range over melanoma cell lines

## COc1ccc(C(=O)/C=C/c2c(C(F)(F)F)nc3sccn23)cc1OC [Compound 8f, (E)-1-(3,4-dimethoxyphenyl)-3-(6-(trifluoromethyl)imidazo[2,1-b]thiazol-5-yl) prop-2-en-1-one]
[1]
  GI50: 4.08 µM
[2]; [35]
  GI50: < 9 µM
[2]; human tumour cell lines
  Log10 TGI mean graph midpoint (MG_MID): −4.22
  in vitro cytotoxicity, in words: significant cytotoxicity
  CC50: 100 µM
[2]; [36]
  GI50: 3.09 µM
[3]
  GI50: 2.12 µM
[4]
  GI50: 2.54 µM
[5]; [37]
  GI50: 2.95 µM
[5]; [38]
  CC50: 100 µM
[5]; [39]
  GI50: 1.88 to 4.18 µM
[6]
  GI50: 2.91 µM
[7]; [40]
  GI50: 4.9 µM
[7]; [41]
  CC50: ≥ 100 µM
[7]; [42]
  GI50: 2.46 to 8.76 µM
[8]
  GI50: 8.48 µM
[9]; [43]
  GI50: 1.64 to 5.39 µM
[9]; [44]
  GI50: 2.95 µM
[9]; [45]
  LC50: ≥ 100 µM
[10]; [46]
  GI50: 1.48 µM
[10]; [47]
  CC50: ≥ 100 µM
[10]; [48]
  GI50: 0.49 to 2.33 µM
[11]
  GI50: 2.4 µM
[12]
  GI50: 1.97 µM
[13]
  GI50: 6 µM
[14]
  GI50: 7.77 µM
[15]
  GI50: 5.92 µM
[16]
  GI50: 0.6 µM
[17]
  GI50: 2.67 µM
[18]
  GI50: 8.47 µM
[19]
  GI50: 2.33 µM
[20]; [49]
  GI50: 5.8 µM
[21]; [50]
  GI50: 3.63 µM
[21]; [51]
  CC50: ≥ 100 µM
[21]; [52]
  GI50: 0.6 to 8.48 µM
[22]
  GI50: 2.51 µM
[23]
  GI50: 3.41 µM
[24]
  GI50: 4.43 µM
[25]
  GI50: 1 µM
[26]
  GI50: 0.49 µM
[26]; 48 h exposure
  GI50: 0.49 µM
[27]
  GI50: 5.67 µM
[28]
  GI50: 4.2 µM
[29]
  GI50: 2.01 µM
[30]
  GI50: 5.39 µM
[31]
  GI50: 1.87 µM
[32]
  GI50: 1.64 µM
[33]
  GI50: 8.76 µM
[34]
  GI50: 6.18 µM

## COc1cc(C(=O)/C=C/c2c(-c3ccc(F)cc3)nc3sc(C)cn23)cc(OC)c1OC [Compound 19e, (E)-3-(6-(4-fluorophenyl)-2-methylimidazo[2,1-b]thiazol-5-yl)-1-(3,4,5-trimethoxyphenyl)prop-2-en-1-one]
[1]
  GI50: 2.28 µM
[2]; [35]
  GI50: < 9 µM
[2]; human tumour cell lines
  Log10 TGI mean graph midpoint (MG_MID): −4.14
  in vitro cytotoxicity, in words: significant cytotoxicity
  CC50: 95.5 µM
[2]; [36]
  GI50: 4.79 µM
[3]
  GI50: 3.66 µM
[4]
  GI50: 3.76 µM
[5]; [37]
  GI50: 6.76 µM
[5]; [38]
  CC50: 100 µM
[5]; [39]
  GI50: ≥ 2.28 µM
[6]
  GI50: 2.96 µM
[7]; [40]
  GI50: 6.31 µM
[7]; [41]
  CC50: ≥ 100 µM
[7]; [42]
  GI50: 1.78 to 28 µM
[8]
  GI50: 7.07 µM
[9]; [43]
  GI50: 2.41 to 7.52 µM
[9]; [44]
  GI50: 4.27 µM
[9]; [45]
  LC50: ≥ 100 µM
[10]; [46]
  GI50: 2.69 µM
[10]; [47]
  CC50: ≥ 100 µM
[10]; [48]
  GI50: 0.8 to 7.19 µM
[11]
  GI50: 4.94 µM
[12]
  GI50: 3.63 µM
[13]
  GI50: 85.1 µM
[14]
  GI50: 4.75 µM
[15]
  GI50: 2.69 µM
[16]
  GI50: 2.5 µM
[17]
  GI50: 5.12 µM
[18]
  GI50: 2.95 µM
[19]
  GI50: 7.19 µM
[20]; [49]
  GI50: 0.15 µM
[20]; HOP-92, non-small cell lung
  GI50: 0.15 µM
[21]; [50]
  GI50: 3.02 µM
[21]; [51]
  CC50: ≥ 100 µM
[21]; [52]
  GI50: 0.51 to 7.07 µM
[22]
  GI50: 8.29 µM
[23]
  GI50: 6.12 µM
[24]
  GI50: 2.29 µM
[25]
  GI50: 2.8 µM
[26]; 48 h exposure
  GI50: 0.8 µM
[27]
  GI50: 8.88 µM
[28]
  GI50: 0.51 µM
[29]
  GI50: 6.96 µM
[30]
  GI50: 2.41 µM
[31]
  GI50: 4.07 µM
[32]
  GI50: 7.52 µM
[33]
  GI50: 28 µM
[34]
  GI50: 2.38 µM
